A short description of data set [1]: Unbound fraction in plasma. In kind it is in vitro ADME.
Data set [2] in a line: Preclinical PK, beagle dogs. Type of data set: in vivo.

For `NS(=O)(=O)NCCNc1nonc1C(=NO)Nc1ccc(F)c(Br)c1` [Compound 1, 4-({2-[(aminosulfonyl)amino]ethyl}amino)-N-(3-bromo-4-fluorophenyl)-N′-hydroxy-1,2,5-oxadiazole-3-carboximidamide], the “unbound fraction in plasma” value in data set [1] is given as 3.1%. Also, the “systemic clearance in percent hepatic blood flow” value in data set [2] (beagle dog) is reported as 26%. Moreover, the “fraction of oral dose absorbed (Fa)” value in data set [2] (beagle dogs, estimated from preclinical PK studies (not shown)) is recorded as 81%. The “renal excretion of unchanged compound” value in data set [2] (dogs) is on record as “less than 3 % of IV dose”.

Values taken from patent US20180353483A1, “PHARMACEUTICAL COMPOSITIONS AND METHODS FOR INDOLEAMINE, 2, 3-DIOXYGENASE INHIBITION AND INDICATIONS THEREFOR” (Incyte Corporation, priority 2015, published 2018).
